Results taken from patent US20170150719A1, “FUNGICIDAL PYRAZOLES AND THEIR MIXTURES” (E I DU PONT DE NEMOURS AND COMPANY, priority 2010, published 2017).
Marks after values point to notes of the source that are not given here.

Columns and labels:
Alternaria solani = assay: Test B: tomato early blight, preventive spray on tomato seedlings, visual disease rating; settings: for Test B rating (% disease control): preventive spray, rating without asterisk; for pest or weed control at 200 µg/mL: Alternaria solani, in Solanum lycopersicum, read-out: Test B rating (disease control)
Septoria tritici = assay: Test F: wheat leaf blotch, preventive spray on wheat seedlings, visual disease rating; assay type: in vivo; parameters: Test F rating (disease control), value marked *: concentration or dose not given beside the values; settings: for Test F rating (% disease control): preventive spray, rating without asterisk; for pest or weed control at 200 µg/mL: Zymoseptoria tritici
Excerpt: (§1) A hyphen (-) indicates no test results.

Botrytis cinerea = assay: Test A: tomato Botrytis, preventive spray on tomato seedlings, visual disease rating; settings: for Test A rating (% disease control): preventive spray, 0 = no control relative to controls, rating without asterisk; for pest or weed control at 200 µg/mL: Botrytis cinerea, in Solanum lycopersicum, read-out: Test A rating (disease control), tomato Botrytis
[1] = tested on: Puccinia recondita f. sp. tritici; assay: Test H: wheat leaf rust, preventive spray on wheat seedlings, visual disease rating; settings: for Test H rating (% disease control): preventive spray, rating without asterisk; for pest or weed control at 200 µg/mL: read-out: Test H rating (disease control), wheat leaf rust, sprayed the day before inoculation
Septoria nodorum = assay: Test E: Septoria glume blotch, preventive spray on wheat seedlings, visual disease rating; settings: for Test E rating (% disease control): Septoria glume blotch on wheat, preventive spray, rating without asterisk; for pest or weed control at 200 µg/mL: Parastagonospora nodorum, in Triticum aestivum, read-out: Test E rating (disease control), Septoria glume blotch
[2] = tested on: Puccinia recondita f. sp. tritici; assay: Test G: wheat leaf rust, spray after inoculation (curative) on wheat seedlings, visual disease rating; assay type: in vivo; settings: for Test G rating (% disease control): spray after inoculation, rating without asterisk
Excerpt: as §1

[3] = tested on: Blumeria graminis f. sp. tritici; assay: Test I: wheat powdery mildew, preventive spray on wheat seedlings, visual disease rating; settings: for Test I rating (% disease control): preventive spray, rating without asterisk; for pest or weed control at 200 µg/mL: Blumeria graminis, in Triticum aestivum, read-out: Test I rating (disease control), wheat powdery mildew
[4] = tomato early blight, 100 = 100% disease control
[5] = tomato Botrytis, 100 = 100% disease control
[6] = wheat leaf rust, 100 = 100% disease control
[7] = wheat powdery mildew, 100 = 100% disease control
[8] = 100 = 100% disease control, 0 = no disease control relative to the controls
[9] = 100 = 100% disease control, 0 = no disease control
[10] = sprayed after inoculation, 100 = 100% disease control, 0 = no disease control

For `CCOc1ccc(-c2c(C)nn(C)c2Nc2c(F)cc(Cl)cc2F)c(Cl)c1` [compound 207], the “Test B rating (% disease control)” value (Alternaria solani; [4]) was 99%, the “Test F rating (% disease control)” value (Septoria tritici; 100 = 100% disease control) was 100% and the “Test A rating (% disease control)” value (Botrytis cinerea; [5]) was 94%. The “Test H rating (% disease control)” value [1, 6] was 94%, the “Test E rating (% disease control)” value (Septoria nodorum; 100 = 100% disease control) was 86% and the “Test G rating (% disease control)” value ([2]; 100 = 100% disease control) was 0%. For the same compound, the “Test I rating (% disease control)” value [3, 7] was 99%.
Compound `COc1cc(F)c(Nc2c(-c3ccc(F)cc3Cl)c(C)nn2C)c(F)c1` [Compound 3, 4-(2-chloro-4-fluorophenyl)-N-(2,6-difluoro-4-methoxyphenyl)-1,3-dimethyl-1H-pyrazol-5-amine] has a pest or weed control at 200 µg/mL (Alternaria solani) of 100%, a pest or weed control at 200 µg/mL (Septoria tritici; [8]) of 97% and a pest or weed control at 200 µg/mL (Botrytis cinerea; [8]) of 100%. It also gave a pest or weed control at 200 µg/mL [1, 9] of 100%, a pest or weed control at 200 µg/mL (Septoria nodorum; [8]) of 93% and a pest or weed control at 200 µg/mL [2, 10] of 96%. For the same compound, the pest or weed control at 200 µg/mL [3, 8] was 100%.
Work on `COc1cc(F)c(-c2c(C)nn(C)c2Nc2ccc(F)cc2F)c(F)c1` [Compound 6, 4-(2,6-difluoro-4-methoxyphenyl)-N-(2,4-difluorophenyl)-1,3-dimethyl-1H-pyrazol-5-amine] yielded a pest or weed control at 200 µg/mL (Alternaria solani) of 100%, a pest or weed control at 200 µg/mL (Septoria tritici; [8]) of 93% and a pest or weed control at 200 µg/mL (Botrytis cinerea; [8]) of 98%. The pest or weed control at 200 µg/mL [1, 9] was 100%, the pest or weed control at 200 µg/mL (Septoria nodorum; [8]) was 99% and the pest or weed control at 200 µg/mL [2, 10] was 92%. For the same compound, the pest or weed control at 200 µg/mL [3, 8] was 100%.
For `Cc1nn(C)c(Nc2c(F)cc(Cl)cc2F)c1-c1ccc(F)cc1I` [compound 225], the “Test B rating (% disease control)” value (Alternaria solani; [4]) was 68%, the “Test F rating (% disease control)” value (Septoria tritici; 100 = 100% disease control) was 100% and the “Test A rating (% disease control)” value (Botrytis cinerea; [5]) was 99%. The “Test H rating (% disease control)” value [1, 6] was 99%, the “Test E rating (% disease control)” value (Septoria nodorum; 100 = 100% disease control) was 0% and the “Test G rating (% disease control)” value ([2]; 100 = 100% disease control) was 0%. For the same compound, the “Test I rating (% disease control)” value [3, 7] was 100%.
In the case of `COc1ccc(-c2c(C)nn(C)c2Oc2ccc(C#N)cc2F)c(Br)c1` [compound 100], the “Test B rating (disease control)” value (Alternaria solani; tomato early blight, 100 = 100% disease control, 0 = no disease control relative to the controls) is reported as 88%, the “Test F rating (disease control)” value (Septoria tritici; [8]) is reported as 100% and the “Test A rating (disease control)” value (Botrytis cinerea; tomato Botrytis, 100 = 100% disease control, 0 = no disease control relative to the controls) is reported as 92%. For the same compound, the “Test H rating (disease control)” value ([1]; wheat leaf rust, sprayed the day before inoculation, 100 = 100% disease control, 0 = no disease control) was 99%, the “Test E rating (disease control)” value (Septoria nodorum; Septoria glume blotch, 100 = 100% disease control, 0 = no disease control relative to the controls) was 100% and the “Test G rating (disease control)” value [2, 10] was 0%. For the same compound, the “Test I rating (disease control)” value ([3]; wheat powdery mildew, 100 = 100% disease control, 0 = no disease control relative to the controls) was 95%.
`Cc1nn(C)c(Nc2c(F)cc(F)cc2Cl)c1-c1ccc(Cl)cc1F` [compound 228] was tested, and the “Test B rating (% disease control)” value (Alternaria solani; [4]) was 40%, the “Test F rating (% disease control)” value (Septoria tritici; 100 = 100% disease control) was 100% and the “Test A rating (% disease control)” value (Botrytis cinerea; [5]) was 68%. The “Test H rating (% disease control)” value [1, 6] was 96%, the “Test E rating (% disease control)” value (Septoria nodorum; 100 = 100% disease control) was 0% and the “Test G rating (% disease control)” value ([2]; 100 = 100% disease control) was 0%. The “Test I rating (% disease control)” value [3, 7] was 81%.
With `COc1ccc(-c2c(C)nn(C)c2Nc2c(F)cc(I)cc2F)c(Cl)c1` [compound 220] the “Test B rating (% disease control)” value (Alternaria solani; [4]) was 69%, the “Test F rating (% disease control)” value (Septoria tritici; 100 = 100% disease control) was 100% and the “Test A rating (% disease control)” value (Botrytis cinerea; [5]) was 100%. The “Test H rating (% disease control)” value [1, 6] was 97%, the “Test E rating (% disease control)” value (Septoria nodorum; 100 = 100% disease control) was 73% and the “Test G rating (% disease control)” value ([2]; 100 = 100% disease control) was 0%. The “Test I rating (% disease control)” value [3, 7] was 96%.
For `Cc1nn(C)c(Oc2ccc(C#N)cc2F)c1-c1ccc(F)cc1F` [compound 159], the “Test B rating (disease control), value marked *” value (Alternaria solani; tomato early blight, rating marked with asterisk (*), other test condition, not explained in the text shown) was 97* %, the “Test F rating (disease control), value marked *” value (Septoria tritici; rating marked with asterisk (*), other test condition, not explained in the text shown) was 100* % and the “Test A rating (disease control), value marked *” value (Botrytis cinerea; tomato Botrytis, rating marked with asterisk (*), other test condition, not explained in the text shown) was 100* %. For the same compound, the “Test H rating (disease control), value marked *” value ([1]; wheat leaf rust, preventive, rating marked with asterisk (*), not explained in the text shown) was 98* %, the “Test E rating (disease control), value marked *” value (Septoria nodorum; Septoria glume blotch, rating marked with asterisk (*), other test condition, not explained in the text shown) was 86* % and the “Test G rating (disease control), value marked *” value ([2]; sprayed after inoculation, rating marked with asterisk (*), not explained in the text shown) was 0* %. The “Test I rating (disease control), value marked *” value ([3]; wheat powdery mildew, rating marked with asterisk (*), not explained in the text shown) was 96* %.
